Experimental data as given in patent US6911550B2, “Derivatives of seleno-amino acids with improved bioavailability and method for their preparation” (priority 2003, dated 2005).
Where a name gives a salt, the structure may show the parent alone. Values belong to the compound of their own block, whether it stands above or below them.

Key:
[1] = system: glutathione peroxidase; assay: Glutathione peroxidase activity in selenium-depleted lambs fed selenium sources; assay type: in vivo; details: for Whole blood glutathione peroxidase activity, difference between selenium sources / Plasma glutathione peroxidase activity compared with sodium selenite / Glutathione peroxidase activities in kidney, liver, and muscle compared to sodium selenite: lambs; for Whole blood glutathione peroxidase activity, difference between selenium sources: day 14; for Plasma glutathione peroxidase activity compared with sodium selenite: day 28, 0.05 ppm Se; for Glutathione peroxidase activities in kidney, liver, and muscle compared to sodium selenite: supplemented for 56 days; for Relative bioavailability based on glutathione peroxidase activity, Plasma, day 14 / Relative bioavailability based on glutathione peroxidase activity, Plasma, day 28 / Relative bioavailability based on glutathione peroxidase activity, Heart / Relative bioavailability based on glutathione peroxidase activity, Kidney / Relative bioavailability based on glutathione peroxidase activity, Liver / Relative bioavailability based on glutathione peroxidase activity, Muscle: sheep, po; for Relative bioavailability based on glutathione peroxidase activity, Plasma, day 14: 14 days; for Relative bioavailability based on glutathione peroxidase activity, Plasma, day 28: 28 days; for Relative bioavailability based on glutathione peroxidase activity, Heart / Relative bioavailability based on glutathione peroxidase activity, Kidney / Relative bioavailability based on glutathione peroxidase activity, Liver / Relative bioavailability based on glutathione peroxidase activity, Muscle: 56 days
Description: (§1) […] lambs with average weight of 18.5 kg were used. […] Lambs were weaned at approximately two months of age and placed in plastic pens with plastic feeders and stainless steel waterers. For 56 days lambs were fed feedstuff low in selenium. Jugular blood samples were obtained from all lambs on days 0, 28 and 56. At the end of the 56-day depletion period, lambs were stratified by weight and randomly assigned to […]. The treatments consisted of: 1) Control, 2) sodium selenite, 3) L-selenomethionine and 4) zinc L-selenomethionine. The selenium sources were added to provide 0.05 ppm of supplemental selenium for 28 days and then the amount of selenium from each source was increased to 0.1 ppm for additional 28 days. Blood samples were collected via jugular puncture on days 0, 14, 28 and 56. Whole blood and plasma glutathione peroxidase activity in samples obtained on days 0, 14, 28, and 56. Plasma selenium was measured in samples obtained on days 0, 28, and 56. Six lambs from each treatment were slaughtered at the end of the study and samples of liver, kidney, muscle, and heart were obtained for the determination of selenium and glutathione peroxidase activities.

[2] = Solubility in water; assay type: physicochemical
Description: L-Selenomethionine (97.8 mg, 0.5 mmole) was added to water (45 ml) in a 250-ml round bottom flask placed in an ice-bath. The mixture was vigorously stirred by using a magnetic stirrer and a Teflon coated stir-bar. […] Zinc chloride (68.20 mg, 0.5 mmole) was added with continued stirring. A clear solution was immediately formed. The solution was concentrated to dryness at temperature 40° C. under reduced pressure. A hygroscopic colorless solid was formed.

[3] = Plasma and tissue selenium concentrations in selenium-depleted lambs fed selenium sources; assay type: in vivo; details: for Relative bioavailability based on tissue selenium concentration, Heart / Relative bioavailability based on tissue selenium concentration, Kidney / Relative bioavailability based on tissue selenium concentration, Liver / Relative bioavailability based on tissue selenium concentration, Muscle: sheep, po, 56 days
Description: as §1

[4] = Performance of grow-finish pigs fed selenium sources; assay type: in vivo; details: for Feed Intake / Feed/Gain / Gain: 0.3 ppm supplemental selenium
Description: (§2) Sixteen pigs with an average weight of 22.9 kg were stratified by weight within sex and randomly assigned to treatments consisting of 0.3 ppm supplemental selenium from either sodium selenite or zinc L-selenomethionine hydrochloride. Pigs were housed in pens and each treatment consisted of four replicate pens each housed one gilt and one […]. Pigs were fed diets that were formulated to meet NRC requirements. Pigs were fed the growing diet for 56 days and then the finishing diet for 33 days. The average pig weight at the end of the growing and finishing phases was 69.6 and 101.2 kg, respectively. Body weights of each pig were determined initially and at the end of the growing and finishing phases. At the end of the study, pigs were slaughtered and samples of liver, muscle, heart and kidney were collected for selenium determination.

[5] = Rumen degradation after ingestion; details: in vivo
[6] = Plasma selenium concentration in broilers; details: both, chicken (broilers), in vivo, 49 days
Description: (§3) One day old male and female birds were used in the study. Male and females were housed separately and randomly assigned to 6 blocks of 8 pens each (4 females and 4 males). The pens contained 50 females or 45 males. Two extra birds were added to each pen at the start of the experiment to allow for mortality and culls. On day 7 the number of birds in each per were adjusted to 50 females and 45 males. Three treatments were assigned to pens using a complete randomized block design. The treatments included: 1) negative control (no additional selenium), 2) sodium selenite, and 3) zinc L-selenomethionine. Birds were housed in concrete floor pens of an environmentally controlled facility. Environmental conditions were similar for all birds in all experimental groups. […] All feed added and removed from pens from day 0 to the end of the study was weighed and recorded. […] The feed intake for each pen was determined by subtracting the amount of feed remaining in the feeder at the end of the study period from the amount of feed weighed into the pen. Average bird weight was calculated on a pen basis. […] Blood was collected in heparinized tubes, plasma was separated and stored at −20° C. until analyzed for selenium and glutathione peroxidase. […] A 100 g sample of the right breast was collected from each bird and stored at −20° C. until analyzed for selenium.

[7] = Stability of a zinc L-selenomethionine solution on storage (HPLC); assay type: physicochemical
Description: FTIR Identification: A 100 μL of the extract was added to 100 mg of FTIR grade potassium bromide powder and mixed well. The mixer was dried in an oven at 75° C. A pellet was formed and the FTIR spectrum of the sample was recorded. […] (w, weak; m, medium; s, strong; vs, very strong). This spectrum is different than that of L-selenomethionine. Of interest is the absence of the weak to medium band at around 2118 cm^−1 characteristic of free amino acids. HPLC Determination: The concentration of zinc L-selenomethionine in the water extract was determined by HPLC. A Shimadzu instrument composed of SCL-10A-VP Controller, Dual LC-10AD-VP Pumps, SIL-10 Ai Auto sampler, and SCD-10AV-VP UV/Visible Detector set at 210 nm. A Discovery Cyano 5μ column (25 cm×4.6 mm) was used at 25° C. The mobile phase was a 0.1% Glacial acetic Acid at 1.00 mL/min. A 50 μL of the standard or sample solution was injected by the auto sampler. A set of 5 standards were prepared to contain 0.1567, 0.3134, 0.4701, 0.6268, and 0.7835 mg/ml of Zinc L-Selenomethionine. A 100 μL of the sample extract was diluted with 900 μL water and used as sample solution. Standards and sample solutions are filtered through a 2μ filter before injection. Standards and sample contained only a single component with a retention time of 3.975 min. Linear regression was used to construct a correlation graph of area under the peak vs. concentration. The concentration of zinc L-selenomethionine in the sample solution was calculated from the correlation graph and found to be 0.3898 mg/mL corresponding to 18.79% Zinc L-Selenomethionine or 5.67% Selenium in the original Premix.
About 2.0 g of a Zinc L-Selenomethionine Premix 5% Se was accurately weighed and transferred into a 100-ml volumetric flask. Water was added to volume. The flask was stoppered and its contents were mixed vigorously. The mixture was allowed to settle and a sample of the supernatant was removed carefully and filtered through a […]. The concentration of zinc L-selenomethionine in the filtrate was determined by HPLC as described in EXAMPLE 2. Analysis was conducted immediately after the solution was prepared and repeated at 30 days and 90 days after storing at an ambient temperature averaging 18° C. and 50% relative humidity.

[8] = Tissue selenium concentrations in grow-finish pigs; assay type: in vivo
Description: as §2

[9] = system: glutathione peroxidase; assay: Plasma glutathione peroxidase activity in broilers; assay type: in vivo; details: day 49
Description: as §3

Relative bioavailability based on glutathione peroxidase activity, Plasma, day 14 ([1]; in vivo): 124 | Relative bioavailability based on glutathione peroxidase activity, Plasma, day 28 ([1]; in vivo): 138 | Relative bioavailability based on glutathione peroxidase activity, Heart ([1]; in vivo): 107 | Relative bioavailability based on glutathione peroxidase activity, Kidney ([1]; in vivo): 100 | Relative bioavailability based on glutathione peroxidase activity, Liver ([1]; in vivo): 161 | Relative bioavailability based on glutathione peroxidase activity, Muscle ([1]; in vivo): 186 | Solubility in water [2]: did not completely go into solution | Plasma selenium compared with sodium selenite ([3]; in vivo): higher plasma selenium | Relative bioavailability based on tissue selenium concentration, Heart ([3]; in vivo): 139 | Relative bioavailability based on tissue selenium concentration, Kidney ([3]; in vivo): 59 | Relative bioavailability based on tissue selenium concentration, Liver ([3]; in vivo): 206 | Relative bioavailability based on tissue selenium concentration, Muscle ([3]; in vivo): 133
Structure (SMILES): C[Se]CC[C@H](N)C(=O)O [L-Selenomethionine, reference compound]
Whole blood glutathione peroxidase activity, difference between selenium sources [1]: no difference | Plasma glutathione peroxidase activity compared with sodium selenite [1]: higher | Glutathione peroxidase activities in kidney, liver, and muscle compared to sodium selenite [1]: higher activities | Heart and liver selenium concentrations compared with sodium selenite ([3]; in vivo): higher heart and liver selenium concentrations

Structure (SMILES): C[Se]CC[C@@H]1[NH][Zn][O]C1=O [Zn L-Selenomethionine, Zinc L-Selenomethionine Hydrochloride]
Gain/feed ratio compared with sodium selenite [4]: higher | Feed Intake ([4]; Finishing Phase (33 days)): 2.22 kg | Feed/Gain ([4]; Finishing Phase (33 days)): 2.31 | Gain ([4]; Finishing Phase (33 days)): 0.96 kg/day | Feed Intake ([4]; Growing Phase (56 days)): 1.86 kg | Feed/Gain ([4]; Growing Phase (56 days)): 2.16 | Gain ([4]; Growing Phase (56 days)): 0.86 kg/day | Feed Intake ([4]; Total): 2.00 kg | Feed/Gain ([4]; Total): 2.22 | Gain ([4]; Total): 0.90 kg/day | Feed consumed compared with sodium selenite ([4]; finishing phase): consumed less feed | Bioavailability compared with sodium selenite and L-selenomethionine ([1]; in vivo): more bioavailabe | Whole blood glutathione peroxidase activity, difference between selenium sources [1]: no difference | Plasma glutathione peroxidase activity compared with sodium selenite [1]: higher | Glutathione peroxidase activities in kidney, liver, and muscle compared to sodium selenite [1]: higher activities | Relative bioavailability based on glutathione peroxidase activity, Plasma, day 14 ([1]; in vivo): 145 | Relative bioavailability based on glutathione peroxidase activity, Plasma, day 28 ([1]; in vivo): 149 | Relative bioavailability based on glutathione peroxidase activity, Heart ([1]; in vivo): 126 | Relative bioavailability based on glutathione peroxidase activity, Kidney ([1]; in vivo): 128 | Relative bioavailability based on glutathione peroxidase activity, Liver ([1]; in vivo): 152 | Relative bioavailability based on glutathione peroxidase activity, Muscle ([1]; in vivo): 200 | Rumen degradation after ingestion [5]: resistant to rumen degradation | Plasma Selenium Concentration [6]: 0.177 ppm | Stability of the water solution on storage [7]: stable on storage | Concentration of zinc L-selenomethionine in the solution ([7]; after 30 days at ambient temperature averaging 18° C. and 50% relative humidity): 18.89% | Concentration of zinc L-selenomethionine in the solution ([7]; after 90 days at ambient temperature averaging 18° C. and 50% relative humidity): 18.78% | Concentration of zinc L-selenomethionine in the solution ([7]; day of preparation, solution of Premix 5% Se in water): 18.95% | Change of concentration of zinc L-selenomethionine in the solution ([7]; thirty day storage at ambient temperature and humidity): less than 0.5% | Kidney selenium concentrations, sodium selenite versus zinc L-selenomethionine ([8]; pig, in vivo): similar | Selenium concentrations in liver, muscle and heart compared with sodium selenite ([8]; pig, in vivo): higher selenium concentrations | Glutathione Peroxidase Activity [9]: 14.9 | Heart and liver selenium concentrations compared with sodium selenite ([3]; in vivo): higher heart and liver selenium concentrations | Plasma selenium compared with sodium selenite ([3]; lambs, day 56): higher plasma selenium | Relative bioavailability based on tissue selenium concentration, Heart ([3]; in vivo): 158 | Relative bioavailability based on tissue selenium concentration, Kidney ([3]; in vivo): 74 | Relative bioavailability based on tissue selenium concentration, Liver ([3]; in vivo): 160 | Relative bioavailability based on tissue selenium concentration, Muscle ([3]; in vivo): 85

Structure (SMILES): C[Se]C[C@H](N)C(=O)O.Cl.[Zn] [zinc Se-methyl-L-selenocysteine complex, Zinc L-Se-Methylselenocysteine Hydrochloride]
Solubility in water [2]: readily soluble in water | Stability of the water solution on storage [7]: stable solution

Structure (SMILES): O=[Se](O)O [Sodium Selenite, reference compound]
Feed Intake ([4]; Finishing Phase (33 days)): 2.57 kg | Feed/Gain ([4]; Finishing Phase (33 days)): 2.71 | Gain ([4]; Finishing Phase (33 days)): 0.95 kg/day | Feed Intake ([4]; Growing Phase (56 days)): 1.74 kg | Feed/Gain ([4]; Growing Phase (56 days)): 2.15 | Gain ([4]; Growing Phase (56 days)): 0.81 kg/day | Feed Intake ([4]; Total): 2.05 kg | Feed/Gain ([4]; Total): 2.38 | Gain ([4]; Total): 0.86 kg/day | Kidney selenium concentrations, sodium selenite versus zinc L-selenomethionine ([8]; pigs): similar | Glutathione Peroxidase Activity [9]: 14.0 | Plasma selenium concentration, difference between selenium sources ([3]; lambs, day 28): no difference
